Test results as given in patent US11390591B2, “2,4,6-trisubstituted s-triazine compound, preparation method therefor, and use thereof” (Aluda Pharmaceuticals, Inc., priority 2016, dated 2022).
Where two headings read alike, the source gives them in different places.

Experiments:
human glioma U87 cells = assay: Tumor cell vacuolization (methuosis) scoring, U87; assay type: cell-based; conditions: for Vacuolation Score: 0.01-3.160 μM, microscope
Procedure: (§1) FIG. 2. Vacuolization of tumor cells. 100 microliter culture medium (RPMI1640, 2 mmol glutamine, 10% fetal bovine serum) containing 10^3 human colon adenocarcinoma cells (HCT15) or human brain glioma cells (U87) and a solvent DMSO control or 100 nM #40 compound (L16) was plated into a 96-well cell culture plate, and cell morphological image was taken under a phase contrast microscope after cultured at 5% CO2 and 37° C. for 96 hours.
Some cells gradually became round and eventually bursted. These changes are consistent with the features of cell death by methuosis (FIG. 2).
In order to compare the ability of different compounds to cause cell vacuolization, 100 μL culture media (RPMI1640, 2 mmol glutamine, 10% fetal bovine serum) comprising 10^3 human glioma U87 cells and final concentrations of 0.01, 0.0316, 0.1, 0.316, 1.0, 3.160 μM respectively of the compounds to be tested were inoculated into a 96-well culture plate. After cultured at 5% CO2 and 37° C. for 96 hours, cell morphology was observed under a high-magnification microscope, and the ability of the compounds to cause cell vacuolization was scored. 5 scores were given when obvious vacuolization occurred at 10 nM, 4 scores at 31.6 nM, 3 scores at 100 nM, 2 scores at 316 nM, 1 score at 1000 nM, and 0 score was given if no vacuolation occurred at any concentration.

vimentin = biological target: T1, vimentin (Homo sapiens, UniProt P08670); assay: Fishing of a target protein with a probe (photo-crosslinking, click reaction, MALDI-MS/MS); assay type: binding; conditions: 0.5 μM probe, U87 cells, 3 hours, UV crosslinking
T1 construct: #79 compound used as a probe is bonded in situ to a target protein within a cell; endogenous in cells; host or cells: U87 human glioma cells
Procedure: FIG. 4 summarizes isolation and identification of a target protein corresponding to a compound causing cell vacuolization. The related steps are described briefly as follows.
An amount of human glioma cells U87 were plated in an 150 cm^2 Petri dish and cultured for 48 hours to reach 75-90% confluence. The culture medium was replaced with a prewarmed medium containing either 0.5 μM probe (#79 compound) or an equivalent volume of DMSO control. The cells continued in culture for 3 hours.
The cells were washed twice with a prechilled phosphate buffer saline (PBS). The cell-culture dish was placed on ice, and the cells were irradiated with ultraviolet light (an ultraviolet lamp having a power of 100 W, wavelength 350 nm, or 315-385 nm) through the top of the dish for 1 hour. Alternatively, a minimal amount of prechilled PBS (10 ml/150 cm^2) was added to the cell-culture dish which was then placed on an ultraviolet irradiator. The bottom of the cell-culture dish received irradiation for 30 minutes (wavelength 315-385 nm, time being adjusted in light of the ultraviolet power).
The cells were dissociated with trypsin, precipitated by centrifugation, and washed twice with PBS. […] The protein concentration of the cell lysate was measured using the Bradford method. […]

[1] = test system: cell lines of human brain glioma (U87); assay: In vitro antineoplastic activity, MTT experiment, U87; assay type: cell-based
Procedure: (§2) MTT, RPM1640 culture medium, fetal bovine serum, 96-well plate, CO2 thermostatic incubator, American BIO-RAD680 microplate reader, cell lines of human non-small cell lung cancer (H522), and cell lines of human brain glioma (U87) were all obtained commercially.
(§3) (1) Cell inoculation: A single cell suspension was prepared with culture media supplemented with 10% fetal bovine serum, plated into a 96-well plate with 5000 cells per well, each well having a volume of 100 μL, and cultured overnight.
(§4) (2) Preparation of compound solutions: a DMSO stock solution of a compound was diluted on a sterile bench with a culture medium into 5 concentrations to be tested, wherein a double dilution was employed between two adjacent concentrations.
(§5) (3) The compound solutions of various concentrations were added into the 96-well plate cultured overnight, with 100 μL added per well, triplicated wells for each concentration. Since the peripheral wells can have edge effect and are susceptible to contamination, no cells or compounds were added thereto; instead, 100 μL culture solution was added as a blank. Additionally, 100% wells were set to contain the cells and 100 μL culture media without any compound. The plates were incubated in a thermostatic incubator at 37° C. for 48 hours.
(§6) (4) Staining: 10 μL MTT solution (5 mg/mL, prepared with PBS) was added into the 96-well plate for staining. After incubation for 4 hours, centrifugation was performed at 2500 rpm for 10 minutes. Then, a multiple pipette was used to suck the culture solution out of the wells carefully without sucking out the cells while the pipette tip faced downward. 150 μL DMSO was added and shaken on a shaker for 5-10 minutes. Crystals were allowed to dissolve fully, and an OD value for each well was measured using the microplate reader at 570 nm. The inhibition rate was calculated as follows: Inhibition rate (%)=(average OD value of 100% wells−average OD value of compound wells)/(average OD value of 100% wells−average OD value of blank wells)×100%

[2] = test system: human colon adenocarcinoma cells (HCT15); assay: Tumor cell vacuolization, HCT15; assay type: cell-based; conditions: 100 nM, 96 hours, phase contrast microscope
Procedure: as §1

[3] = test system: cell lines of human non-small cell lung cancer (H522); assay: In vitro antineoplastic activity, MTT experiment, H522; assay type: cell-based; conditions: H522 cells, 48 hours, highest concentration tested 31.6 μM (>30: inhibition rate <50%)
Procedure: as §2, §3, §4, §5, §6

T1 sequence (P08670 whole entry): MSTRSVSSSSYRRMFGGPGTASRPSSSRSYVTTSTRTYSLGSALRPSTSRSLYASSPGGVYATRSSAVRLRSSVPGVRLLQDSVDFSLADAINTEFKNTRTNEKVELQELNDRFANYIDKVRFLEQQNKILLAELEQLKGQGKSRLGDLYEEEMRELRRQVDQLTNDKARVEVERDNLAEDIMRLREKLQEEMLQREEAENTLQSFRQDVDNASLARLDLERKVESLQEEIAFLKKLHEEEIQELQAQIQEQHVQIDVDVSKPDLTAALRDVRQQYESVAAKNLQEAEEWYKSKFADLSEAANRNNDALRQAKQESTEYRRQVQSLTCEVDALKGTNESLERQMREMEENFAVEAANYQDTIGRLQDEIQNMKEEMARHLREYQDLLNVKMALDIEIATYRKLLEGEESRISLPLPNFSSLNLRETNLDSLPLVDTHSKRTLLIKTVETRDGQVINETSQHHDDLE

IC50 ([1]; U87 cells, MTT, 48 hours, highest concentration tested 31.6 μM, read-out: IC50(μM) U87) | IC50 ([1]; ability to inhibit cell proliferation, U87 (FIG. 3), unit inferred, read-out: IC50) | IC50 [3] | SMILES | Vacuolation Score (human glioma U87 cells; U87 cells, 96 hours) | ability to cause cell vacuolization (in words) (human glioma U87 cells; U87 cells, among the compounds tested) | target protein of the compound (vimentin) | vacuolization of U87 cells (human glioma U87 cells; 100 nM, 96 hours, phase contrast microscope) | vacuolization of HCT15 cells [2]
 |  |  | C#CCCC1(CCNC(=O)c2ccc(NC(=O)Nc3ccc(Nc4nc(/C=C/c5ccccc5)nc(N5CCOCC5)n4)cc3)cc2)N=N1 [compound 79, (E)-N-(2-(3-(1-butyn-4-yl)-3H-diaziridin-3-yl)ethyl)-4-(3-(4-((4-(morpholin-1-yl)-6-styrenyl-1,3,5-triazin-2-yl)amino)phenyl)urea)benzamide] | 4.5 | same cell phenotype | vimentin |  | 
1.71 ± 0.06 µM | 1.71 µM | 0.78 ± 0.04 µM | O=C(Nc1ccc(Cl)cc1)Nc1ccc(Nc2nc(/C=C/c3cccc([N+](=O)[O-])c3)nc(N3CCOCC3)n2)cc1 [L16, (E)-1-(4-chlorophenyl)-3-(4-(4-(morpholin-1-yl)-6-(3-nitrostyrenyl)-1,3,5-triazinyl-2-amino)phenyl)urea] | 4 (4 scores at 31.6 nM) |  |  | significant vaculization | significant vaculization
